Experimental data taken from article PMC10404678, “A recombinant technique for mapping functional sites of heterotrimeric collagen helices: Collagen IV CB3 fragment as a prototype for integrin binding” (The Journal of Biological Chemistry, 2023).

Key:
Assay in all cases: fluorescence polarization competition with fluorescent BOP probe
Assay type in all cases: binding
integrin α2β1 ectodomain = target: T1, integrin α2β1 ectodomain (Homo sapiens, UniProt P05556+P17301)
T1 construct: gene ITGA2; ectodomain heterodimer; alpha with ACID coil and C-terminal StrepII tag, beta with BASE coil and His tag; Expi293 cells, separate pcDNA3.4 vectors

integrin α1β1 ectodomain = target: T2, integrin α1β1 ectodomain (Homo sapiens, UniProt P05556+P56199)
T2 construct: gene ITGA1; ectodomain heterodimer; alpha with ACID coil and C-terminal StrepII tag, beta with BASE coil and His tag; Expi293 cells, separate pcDNA3.4 vectors

[1] = target: T3, integrin α11β1 ectodomain (Homo sapiens, UniProt P05556+Q9UKX5)
T3 construct: gene ITGA11; ectodomain heterodimer; continuous transcript alpha-GGGS-P2A-beta; alpha with ACID coil and C-terminal StrepII tag, beta with BASE coil and His tag; Expi293 cells; beta1 borders printed for the separate vector

integrin α3β1 = target: T4, integrin α3β1 (Homo sapiens, UniProt P05556+P26006)
T4 construct: gene ITGA3; purchased recombinant heterodimer (R&D Systems), extracellular domains

[2] = target: T5, integrin α10β1 ectodomain (Homo sapiens, UniProt O75578+P05556)
T5 construct: gene ITGA10; ectodomain heterodimer; continuous transcript alpha-GGGS-P2A-beta; alpha with ACID coil and C-terminal StrepII tag, beta with BASE coil and His tag; Expi293 cells; beta1 borders printed for the separate vector

T3 sequence (Q9UKX5 23-1139): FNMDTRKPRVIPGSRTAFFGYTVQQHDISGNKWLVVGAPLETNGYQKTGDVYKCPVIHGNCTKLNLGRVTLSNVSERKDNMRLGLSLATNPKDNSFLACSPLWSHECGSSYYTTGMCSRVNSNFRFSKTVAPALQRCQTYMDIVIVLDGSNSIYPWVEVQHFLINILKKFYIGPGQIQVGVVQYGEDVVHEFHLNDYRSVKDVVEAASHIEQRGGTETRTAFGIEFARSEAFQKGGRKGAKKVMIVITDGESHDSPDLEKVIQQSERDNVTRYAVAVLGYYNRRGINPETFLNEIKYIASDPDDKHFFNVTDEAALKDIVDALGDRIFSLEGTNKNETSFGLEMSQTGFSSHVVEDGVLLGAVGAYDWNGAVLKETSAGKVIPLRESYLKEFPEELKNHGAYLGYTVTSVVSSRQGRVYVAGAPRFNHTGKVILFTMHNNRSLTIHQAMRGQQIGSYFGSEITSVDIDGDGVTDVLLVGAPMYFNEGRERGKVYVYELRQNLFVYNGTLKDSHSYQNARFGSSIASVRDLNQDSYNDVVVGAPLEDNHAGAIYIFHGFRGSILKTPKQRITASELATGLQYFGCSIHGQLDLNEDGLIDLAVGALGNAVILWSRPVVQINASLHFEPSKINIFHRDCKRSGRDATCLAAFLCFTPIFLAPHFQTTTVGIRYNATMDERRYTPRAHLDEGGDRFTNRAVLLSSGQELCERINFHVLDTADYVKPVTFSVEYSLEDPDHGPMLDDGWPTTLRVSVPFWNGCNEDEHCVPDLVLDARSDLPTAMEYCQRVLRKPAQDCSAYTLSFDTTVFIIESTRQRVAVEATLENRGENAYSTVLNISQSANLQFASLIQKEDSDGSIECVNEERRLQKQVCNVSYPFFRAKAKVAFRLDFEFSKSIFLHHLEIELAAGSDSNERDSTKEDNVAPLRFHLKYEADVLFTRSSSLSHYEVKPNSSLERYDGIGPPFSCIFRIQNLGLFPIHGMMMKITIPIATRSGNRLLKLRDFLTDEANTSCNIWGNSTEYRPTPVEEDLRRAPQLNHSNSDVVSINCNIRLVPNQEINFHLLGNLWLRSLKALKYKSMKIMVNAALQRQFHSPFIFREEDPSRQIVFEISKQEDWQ
T3 sequence (P05556 21-728): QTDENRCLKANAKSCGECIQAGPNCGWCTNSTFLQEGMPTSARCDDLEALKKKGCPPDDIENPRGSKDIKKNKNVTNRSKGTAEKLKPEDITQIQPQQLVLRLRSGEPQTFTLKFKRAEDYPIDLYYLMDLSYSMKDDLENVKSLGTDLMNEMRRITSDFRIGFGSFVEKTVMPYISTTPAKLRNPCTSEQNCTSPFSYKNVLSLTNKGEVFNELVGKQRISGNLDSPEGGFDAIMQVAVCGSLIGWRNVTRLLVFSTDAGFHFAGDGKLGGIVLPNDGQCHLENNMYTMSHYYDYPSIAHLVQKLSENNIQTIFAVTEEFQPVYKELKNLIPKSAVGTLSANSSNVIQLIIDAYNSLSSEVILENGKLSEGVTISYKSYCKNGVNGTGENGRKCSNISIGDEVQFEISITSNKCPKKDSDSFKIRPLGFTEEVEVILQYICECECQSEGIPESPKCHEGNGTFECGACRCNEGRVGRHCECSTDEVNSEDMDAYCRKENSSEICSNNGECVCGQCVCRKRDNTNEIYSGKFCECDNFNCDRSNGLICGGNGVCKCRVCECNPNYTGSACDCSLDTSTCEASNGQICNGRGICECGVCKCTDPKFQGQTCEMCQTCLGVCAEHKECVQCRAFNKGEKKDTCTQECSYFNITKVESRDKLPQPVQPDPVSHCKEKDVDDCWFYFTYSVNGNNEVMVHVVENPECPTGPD
T2 sequence (P56199 29-1143): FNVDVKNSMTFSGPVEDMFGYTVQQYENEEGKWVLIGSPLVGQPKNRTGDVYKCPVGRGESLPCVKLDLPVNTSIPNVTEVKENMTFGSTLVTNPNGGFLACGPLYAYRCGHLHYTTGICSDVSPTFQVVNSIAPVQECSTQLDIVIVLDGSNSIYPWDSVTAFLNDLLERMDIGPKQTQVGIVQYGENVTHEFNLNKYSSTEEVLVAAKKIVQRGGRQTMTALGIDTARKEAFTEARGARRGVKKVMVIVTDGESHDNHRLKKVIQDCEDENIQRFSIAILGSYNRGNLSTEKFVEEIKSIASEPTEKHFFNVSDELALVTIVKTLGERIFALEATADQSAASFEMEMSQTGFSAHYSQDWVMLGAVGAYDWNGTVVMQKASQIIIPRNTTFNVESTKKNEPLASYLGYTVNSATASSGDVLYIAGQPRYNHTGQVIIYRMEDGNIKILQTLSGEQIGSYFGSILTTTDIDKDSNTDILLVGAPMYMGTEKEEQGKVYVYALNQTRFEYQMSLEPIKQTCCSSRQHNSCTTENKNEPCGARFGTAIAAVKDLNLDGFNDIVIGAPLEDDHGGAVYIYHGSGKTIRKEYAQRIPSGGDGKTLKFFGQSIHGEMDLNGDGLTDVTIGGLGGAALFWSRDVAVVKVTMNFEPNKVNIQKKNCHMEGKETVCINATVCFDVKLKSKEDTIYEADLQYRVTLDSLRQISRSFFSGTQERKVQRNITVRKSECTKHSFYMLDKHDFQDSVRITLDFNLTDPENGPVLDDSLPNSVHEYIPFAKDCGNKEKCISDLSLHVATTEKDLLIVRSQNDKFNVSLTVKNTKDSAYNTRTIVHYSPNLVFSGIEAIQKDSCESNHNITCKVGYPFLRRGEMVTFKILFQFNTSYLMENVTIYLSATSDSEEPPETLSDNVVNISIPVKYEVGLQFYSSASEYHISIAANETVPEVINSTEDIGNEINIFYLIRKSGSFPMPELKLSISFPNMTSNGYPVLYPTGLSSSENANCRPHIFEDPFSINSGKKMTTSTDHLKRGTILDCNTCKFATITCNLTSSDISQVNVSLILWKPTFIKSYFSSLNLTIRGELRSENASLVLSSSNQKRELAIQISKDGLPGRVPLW
T2 sequence (P05556 21-728): as the sequence (P05556 21-728) above
T1 sequence (P17301 30-1129): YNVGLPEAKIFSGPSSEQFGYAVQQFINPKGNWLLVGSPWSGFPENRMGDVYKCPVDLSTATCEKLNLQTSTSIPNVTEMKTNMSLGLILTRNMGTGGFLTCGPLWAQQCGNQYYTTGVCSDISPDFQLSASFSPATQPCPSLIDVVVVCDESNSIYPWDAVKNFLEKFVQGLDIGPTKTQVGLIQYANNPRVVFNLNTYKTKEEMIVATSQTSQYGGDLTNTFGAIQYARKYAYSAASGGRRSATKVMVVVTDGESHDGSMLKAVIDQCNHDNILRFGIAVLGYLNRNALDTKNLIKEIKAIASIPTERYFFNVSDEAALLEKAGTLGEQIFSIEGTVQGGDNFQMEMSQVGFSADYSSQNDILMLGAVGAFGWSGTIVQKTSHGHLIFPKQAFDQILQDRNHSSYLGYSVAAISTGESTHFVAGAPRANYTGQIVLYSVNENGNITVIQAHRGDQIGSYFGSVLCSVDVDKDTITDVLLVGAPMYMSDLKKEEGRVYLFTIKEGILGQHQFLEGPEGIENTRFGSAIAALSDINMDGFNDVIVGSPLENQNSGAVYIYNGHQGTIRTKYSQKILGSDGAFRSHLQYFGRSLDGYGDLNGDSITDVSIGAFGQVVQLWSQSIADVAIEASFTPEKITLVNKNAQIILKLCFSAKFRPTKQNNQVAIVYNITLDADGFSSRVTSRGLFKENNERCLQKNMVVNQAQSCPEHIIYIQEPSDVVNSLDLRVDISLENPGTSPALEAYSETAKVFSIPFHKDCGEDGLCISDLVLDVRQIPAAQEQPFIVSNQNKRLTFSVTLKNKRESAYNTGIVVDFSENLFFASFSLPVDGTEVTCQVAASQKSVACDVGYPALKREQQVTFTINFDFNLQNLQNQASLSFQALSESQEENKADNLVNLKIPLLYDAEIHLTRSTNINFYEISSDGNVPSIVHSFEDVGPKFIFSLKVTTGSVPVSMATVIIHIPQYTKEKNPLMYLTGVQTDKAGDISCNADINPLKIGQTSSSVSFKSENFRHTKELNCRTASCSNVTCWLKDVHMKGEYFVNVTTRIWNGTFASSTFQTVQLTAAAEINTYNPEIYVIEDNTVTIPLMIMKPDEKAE
T1 sequence (P05556 21-728): as the sequence (P05556 21-728) above

Structure (SMILES): O=C(O)[C@H](Cc1ccc(OC(=O)N2CCCC2)cc1)NC(=O)[C@@H]1CCCN1S(=O)(=O)c1ccccc1 [BOP, N-(Benzenesulfonyl)-L-prolyl-L-O-(1-pyrrolidinylcarbonyl)tyrosine]
- IC50 (integrin α2β1 ectodomain): 0.0162 µM
- IC50 (integrin α1β1 ectodomain): 0.0807 µM
- IC50 [1]: 0.118 µM
- IC50 (integrin α3β1): 0.0312 µM
- IC50 [2]: 0.0253 µM
